Reference: US20230203060A1 (GENFLEET THERAPEUTICS (SHANGHAI) INC., priority 2020, published 2023)
Where a name gives a salt, the structure may show the parent alone. Read-outs that look alike come from different tables or passages of the source.

Legend:
[1] = test system: A549 cells (KRAS G12S mutant); assay: Cell proliferation inhibition experiment, 3D spheroid, CellTiter-Glo, A549; assay type: cell-based, human; details: A549 (KRAS G12S mutant) 3D spheroid, 5 days with compound, CellTiter-Glo, read-out: A549 IC50
Procedure, shortened: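 IC50 values come from four-parameter fits of proliferation inhibition, measured by CellTiter-Glo after 5-day compound exposure. Spheroids of H358 (800 cells) or A549 (400 cells) were formed overnight in 2% FBS medium; DMSO held at 0.1%, doses spaced 3.16-fold.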

[2] = test system: phosphorylated ERK downstream of KRAS G12C in MIA PaCa2 cells; assay: Cell p-ERK detection experiment (HTRF) in MIA PaCa2; assay type: cell-based, human; details: Homo sapiens, MIA PaCa-2, 2 h, MIA PaCa2 cells, 2 hours with compound, Advance ERK phospho-T202/Y204 HTRF kit; read-out: p-ERK IC50
From the text: Raw materials and instruments: MIA PaCa-2 purchased from ATCC; article number: CRL-1420; batch number: 63143594; DMEM purchased from Gibco; article number: 11995-065; batch number: 2186878; FBS purchased from Gibco; article number: 10099-141; batch number: 2109290CP; Horse serum purchased from Gibco; article number: 16050-122; batch number: 1818976; Trypsin-EDTA purchased from Gibco; article number: 25200-072; batch number: 2085552; PS purchased from Gibco; article number: 15140-122; batch number: 2145451; DMSO purchased from VWR AMRESCO; article number: 0231-500ML; batch number: 0457C072; 96-well cell culture plate purchased from Corning; article number: 3599; batch number: 22718601; white opaque 96-well plate purchased from Cisbio; article number: 66PL96025; batch number: N°05; Advance ERK phospho-T202/Y204 kit purchased from Cisbio; article number: 64AERPEH; batch number: 11D; microplate reader purchased from PerkinElmer; model: Envision MLD2105-0020; equipment number 1050369.
MIA PaCa2 was a KRAS G12C mutant human pancreatic cancer cell line cultured in 10% FBS+2.5% Horse serum DMEM culture medium. Cells at logarithmic growth stage were taken, digested with trypsin-EDTA, then collected and counted, and 2.5E4 cells were inoculated in a 96-well cell culture plate and cultured overnight. A 3.16-fold gradient concentration stock solution of 1000× compound was prepared with DMSO, and diluted 200-fold to 5× compound stock solution with culture medium. On the second day after cell inoculation, 5× compound stock solution was added to each cell culture well, with a final concentration of 1× and a DMSO content of 0.1%. DMSO was used as experimental control (control). After the compound was added and cultured for two hours, the residual culture medium was removed. 50 μL of cell lysate (from Advance ERK phospho-T202/Y204 kit, the same below) was added to each well, mixed well and incubated for 30 minutes, and then 16 μL of the mixed solution was transferred to a white opaque 96-well plate, and 16 μL of cell lysate was added to the blank wells. After the transfer was completed, 4 μL of p-ERK HTRF antibody (from Advance ERK phospho-T202/Y204 kit) mixture was added to each well, incubated for 4 hours, and the fluorescence value was read with the microplate reader. The inhibition rate of the compound IR (%)=(RLU control -RLU compound)/(RLU control-RLU blank)×100% was calculated. The gradient dilution concentration of the compound and the corresponding cell proliferation inhibition rate were fitted by Prism 8 four-parameter method, and the IC50 value was calculated. The compounds prepared in the above embodiments of the present disclosure have inhibitory activity of 0.0001 μM to 1 μM on the phosphorylated ERK level downstream of the cell channel of KRAS G12C protein mutant; some compounds have inhibitory activity of 0.001 μM to 1 μM or 0.001 μM to 0.5 μM on phosphorylated ERK level downstream of cell channel of KRAS G12C protein mutant.

Row | IC50 ([1]; Homo sapiens, A549, 120 h) | IC50 [2] | IC50 [1] | Structure (SMILES)
1 | 14400 nM | 71 nM |  | C=CC(=O)N1CCN2C(=O)c3c(N4CCN(C)[C@H](C)[C@@H]4C)nc(-c4c(O)cccc4F)c(Cl)c3OC[C@H]2C1 (single isomer, unassigned) [Z308a-1]
2 | 7000 nM | 11 nM |  | C=CC(=O)N1CCN2C(=O)c3c(N4C[C@H](N5CCOCC5)CC4(C)C)nc(-c4c(O)cccc4F)c(Cl)c3OC[C@H]2C1 (single isomer, unassigned) [Z297-1]
3 | 9270 nM | 17 nM |  | C=CC(=O)N1CCN2C(=O)c3c(N4C[C@H](OC)CC4(C)C)nc(-c4c(O)cccc4F)c(F)c3OC[C@H]2C1 (single isomer, unassigned) [Z256a-2]
4 | > 10000 nM | 23 nM |  | C=CC(=O)N1CCN2C(=O)c3c(N4C[C@@H](N(C)CCOC)C[C@@H]4C)nc(-c4c(O)cccc4F)c(Cl)c3OC[C@H]2C1 [Z358-1]
5 | 4650 nM | 34 nM |  | C=CC(=O)N1CCN2C(=O)c3c(N4C[C@H](N(C)C)CC4(C)C)nc(-c4c(O)cccc4F)c(Cl)c3OC[C@H]2C1 (single isomer, unassigned) [Z324-2]
6 | > 20000 nM | 325 nM |  | C=CC(=O)N1CCN2C(=O)c3c(N4CCC(C)(C)C4)nc(-c4c(O)cccc4F)c(Cl)c3OC[C@H]2C1 [Z21, (6aR)-8-acryloyl-4-chloro-1-(3,3-dimethylpyrrolidin-1-yl)-3-(2-fluoro-6-hydroxyphenyl)-6,6a,7,8,9,10-hexahydro-12H-pyrazino[2,1-c]pyrido[3,4-f][1,4]oxazepin-12-one]
7 | 5530 nM | 30 nM |  | C=CC(=O)N1CCN2C(=O)c3c(N4C[C@@H](N(C)C)C[C@@H]4C)nc(-c4c(O)cccc4F)c(Cl)c3OC[C@H]2C1 [Z237-2, (6aR)-8-acryloyl-4-chloro-1-((2S,4S)-4-(dimethylamino)-2-methylpyrrolidin-1-yl)-3-(2-fluoro-6-hydroxyphenyl)-6,6a,7,8,9,10-hexahydro-12H-pyrazino[2,1-c]pyrido[3,4-f][1,4]oxazepin-12-one]
8 | > 30000 nM | 151 nM |  | C=CC(=O)N1CCN2C(=O)c3c(N4C[C@@H](O)CC4(C)C)nc(-c4c(F)ccc(F)c4O)c(F)c3OC[C@H]2C1 (single isomer, unassigned) [Z449-1]
9 | 9510 nM | 172 nM |  | C=CC(=O)N1CCN2C(=O)c3c(N4CC[C@H](OC)C4(C)C)nc(-c4c(O)cccc4F)c(F)c3OC[C@H]2C1 (single isomer, unassigned) [Z327-2]
10 | > 30000 nM | 61 nM |  | C=CC(=O)N1CCN2C(=O)c3c(N4C[C@H](O)CC4(C)C)nc(-c4ccccc4F)c(Cl)c3OC[C@H]2C1 (single isomer, unassigned) [Z325-2]
11 | 9120 nM | 27 nM |  | C=CC(=O)N1CCN2C(=O)c3c(N4C[C@H](OC)C[C@@H]4C)nc(-c4c(O)cccc4F)c(Cl)c3OC[C@H]2C1 [Z259a, (6aR)-8-acryloyl-4-chloro-3-(2-fluoro-6-hydroxyphenyl)-1-((2S,4R)-4-methoxy-2-methylpyrrolidin-1-yl)-6,6a,7,8,9,10-hexahydro-12H-pyrazino[2,1-c]pyrido[3,4-f][1,4]oxazepin-12-one]
12 | 3440 nM | 108 nM |  | C=CC(=O)N1CCN2C(=O)c3c(N4C[C@](C)(O)CC4(C)C)nc(-c4c(O)cccc4F)c(Cl)c3OC[C@H]2C1 (single isomer, unassigned) [Z243-2]
13 | > 30000 nM | 70 nM |  | C=CC(=O)N1CCN2C(=O)c3c(N4CCN(C)C(=O)[C@@H]4C)nc(-c4c(O)cccc4F)c(Cl)c3OC[C@H]2C1 [Z311-1, (6aR)-8-actyloyl-4-chloro-1-((S)-2,4-dimethyl-3-oxopiperazin-1-yl)-3-(2-fluoro-6-hydroxyphenyl)-6,6a,7,8,9,10-hexahydro-12H-pyrazino[2,1-c]pyrido[3,4-f][1,4]oxazepin-12-one]
14 | 7330 nM | 16 nM |  | C=CC(=O)N1CCN2C(=O)c3c(N4CC(C#N)CC4(C)C)nc(-c4c(O)cccc4F)c(Cl)c3OC[C@H]2C1 (stereo partly drawn) [Z275, (6aR)-8-acryloyl-1-(4-cyano-2,2-dimethylpyrrolidin-1-yl)-4-chloro-3-(2-fluoro-6-hydroxyphenyl)-6,6a,7,8,9,10-hexahydro-12H-pyrazino[2,1-c]pyrido[3,4-f][1,4]oxazepin-12-one]
15 | 28300 nM | 253 nM |  | C=CC(=O)N1CCN2C(=O)c3c(N4CCN(C)C[C@@H]4C)nc(-c4c(F)ccc(F)c4O)c(Cl)c3OC[C@H]2C1 [Z356, (6aR)-8-acryloyl-4-chloro-3-(3,6-difluoro-2-hydroxyphenyl)-1-((S)-2,4-dimethylpiperazin-1-yl)-6,6a,7,8,9,10-hexahydro-12H-pyrazino[2,1-c]pyrido[3,4-f][1,4]oxazepin-12-one]
16 | 26300 nM | 87 nM |  | C=CC(=O)N1CCN2C(=O)c3c(N4CCN(S(C)(=O)=O)C[C@@H]4C)nc(-c4c(O)cccc4F)c(Cl)c3OC[C@H]2C1 [Z318-1, (6aR)-8-acryloyl-1-((S)-2-methyl-4-(methylsulfonyl)piperazin-1-yl)-4-chloro-3-(2-fluoro-6-hydroxyphenyl)-6,6a,7,8,9,10-hexahydro-12H-pyrazino[2,1-c]pyrido[3,4-f][1,4]oxazepin-12-one]
17 | > 30000 nM | 130 nM |  | C=CC(=O)N1CCN2C(=O)c3c(N4CC(C#N)CC4(C)C)nc(-c4c(O)cccc4F)c(F)c3OC[C@H]2C1 (stereo partly shown) [Z335]
18 | 4940 nM | 12 nM |  | C=CC(=O)N1CCN2C(=O)c3c(N4CCC(OC)C4(C)C)nc(-c4c(O)cccc4F)c(Cl)c3OC[C@H]2C1 (stereo partly drawn) [Z241a, (6aR)-8-acryloyl-4-chloro-3-(2-fluoro-6-hydroxyphenyl)-1-(3-methoxy-2,2-dimethylpyrrolidin-1-yl)-6,6a,7,8,9,10-hexahydro-12H-pyrazino[2,1-c]pyrido[3,4-f][1,4]oxazepin-12-one]
19 |  | 29 nM | 27100 nM | C=CC(=O)N1CCN2C(=O)c3c(N4CCN(C)C(C)C4C)nc(-c4c(O)cccc4F)c(Cl)c3OC[C@H]2C1 (stereo partly drawn) [Z369, (6aR)-8-acryloyl-4-chloro-3-(2-fluoro-6-hydroxyphenyl)-1-(2,3,4-trimethylpiperazin-1-yl)-6,6a,7,8,9,10-hexahydro-12H-pyrazino[2,1-c]pyrido[3,4-f][1,4]oxazepin-12-one]
20 | 2530 nM | 85 nM |  | C=CC(=O)N1CCN2C(=O)c3c(N4CC[C@@H](N(C)C)C4(C)C)nc(-c4c(O)cccc4F)c(Cl)c3OC[C@H]2C1 (single isomer, unassigned) [Z360-1]
21 | > 10000 nM | 20 nM |  | C=CC(=O)N1CCN2C(=O)c3c(N4C[C@H](CO)CC4(C)C)nc(-c4c(O)cccc4F)c(Cl)c3OC[C@H]2C1 (single isomer, unassigned) [Z240-2]
22 | 9220 nM | 89 nM |  | C=CC(=O)N1CCN2C(=O)c3c(N4Cc5cn(C)nc5[C@H]4C)nc(-c4c(O)cccc4F)c(Cl)c3OC[C@H]2C1 (single isomer, unassigned) [Z291-1S, trifluoroacetate]
23 | 12200 nM | 93 nM |  | C=CC(=O)N1CCN2C(=O)c3c(N4C[C@@H](OC)C[C@@H]4C)nc(-c4c(O)cccc4F)c(F)c3OC[C@H]2C1 [Z359-1, (6aR)-8-actyloyl-4-fluoro-3-(2-fluoro-6-hydroxyphenyl)-1-((2S,4S)-4-methoxy-2-methylpyrrolidin-1-yl)-6,6a,7,8,9,10-hexahydro-12H-pyrazino[2,1-c]pyrido[3,4-f][1,4]oxazepin-12-one]
